Experimental data taken from patent US6420352B1, “Hair loss prevention” (priority 2000, dated 2002).
Like-named read-outs stand apart in the source and are kept apart here.

Experiments:
age related hair loss = details: stump-tail macaque monkeys; cited from earlier work
[1] = cited from earlier work
scalp hair follicles = details: in vivo; cited from earlier work
hair loss = experiment: Topical use for hair loss prevention, effectiveness in patients; format: in vivo, human; details: same amount of minoxidil
Description: […]. […] […]. After about thirty months of use, about half of the new hair growth falls out. Thus, while the user has somewhat more hair than originally, the user has less hair than […].
Minoxidil without a penetration enhancer (as available in ROGAINE™ topical minoxidil U.S.P.) produces a different kind of hair than does minoxidil used with a penetration enhancer.
Further, it is known in the art that minoxidil users experience a sudden drop in hair thickness after about thirty months of usage. I thus have sought the time at which my compounds have a sudden drop in effectiveness. […] That this function is abnormal is confirmed by its drop in effectiveness after thirty months; such a drop in efficacy indicates a “tolerance” acquired against the intervention, rather than the maintenance of a permanent, healthy state.
Using the specific formulations disclosed here, I have observed decreases in hair loss, and a consequent statistically significant increase in the amount of healthy mature hair, after 4.0-4.5 months on the frontal scalp. On the crown and back of the head, by contrast, I have observed statistically significant results after 4.5-5.0 months. The frontal scalp may react faster because it enjoys greater vascularization and blood flow than the other parts of the scalp.
I have found several surprising things about testosterone blockers. […]

## CN(C)C(=O)C1CCC2C3CCC4N(C)C(=O)CCC4(C)C3CCC12C (stereo not drawn) [17b-N,N,- dimethylcarbamoyl-4-methyl-4-aza-5α-androstan-3-one]
Age related hair loss
  age related hair loss versus untreated monkeys: significantly less age related hair loss

## CCC(CCCCC1CCC2CC(=O)CC12)OC (stereo not shown) [Cioteronel, hexahydro-4-(5-methoxyheptyl)-2(1H)-pentalenone]
[1]; in lipid and relatively non-polar solvents
  solubility, in words: soluble

## CC(=O)[C@H]1CC[C@H]2[C@@H]3CCC4=CC(=O)CC[C@]4(C)[C@H]3CC[C@]12C [Progesterone, pregn-4-ene-3, 20-dione]
[1]; in alcohol, acetone, dioxane, and concentrated sulfuric acid
  solubility, in words: soluble
[1]; in vegetable oils
  solubility, in words: sparingly soluble
[1]; in water
  solubility, in words: insoluble

## CC(C)(C)NC(=O)[C@H]1CC[C@H]2[C@@H]3CC[C@H]4NC(=O)C=C[C@]4(C)[C@H]3CC[C@]12C [finasteride]
Scalp hair follicles
  effect on scalp hair follicles / balding process: miniaturizes scalp hair follicles, reversing the balding process

## Nc1cc(N2CCCCC2)nc(N)[n+]1[O-] [minoxidil, 6-(1-piperidinyl)-2,4-pyrimidinediamaine 3-oxide]
Hair loss
  share of patients on whom the preparation is effective: 8%
